The values below come from patent publication US6265423A, “Aromatic polycyclic retinoid-type derivatives, method for preparing same, and use thereof for making pharmaceutical and cosmetic compositions” (priority 1996, dated 2001).

Each structure is given as a SMILES string. “Also recorded” adds a separate entry of the source.

For experiment [1], the system named is human mammary tumoral lineage T-47D. Put plainly: Clonogenic test (soft agar), growth of cellular colonies. The following applies: T-47D; for activity at 0.01 µM: 10^-8 M; for activity at 0.001 µM: 10^-9 M; for activity at 0.0001 µM: 10^-10 M; for effect on growth of cellular colonies (in words): soft agar. The format is cell-based. An outline of the steps: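 T-47D cells of over 90% viability were seeded in 0.3% agar over a 0.5% agar base and kept at 37 °C with 5% CO2 for 21 days after treatment. After staining with MTT (1 mg/ml, at least 3 h), colonies larger than 100 μm² were counted microscopically and expressed as a percentage of control.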

For the next experiment, the system named is Gal4-RARγ. Nature of the experiment: Transactivation, chimerical receptor Gal4-RARγ (transitory transfection of HeLa). It counts as cell-based. The following applies: 10^-6 M; 100% = TTNPB 10^-8 M.
Experiment [2] deals with AP-1, MTLN lineage (MCF-7). Put plainly: Anti-AP-1 effect, MTLN lineage activated by TPA. It counts as cell-based, human. The following applies: for inhibition at 1 µM / inhibition at 0.1 µM: Homo sapiens, MCF7, cells activated by 10^-7 M TPA, range of several experiments; for inhibition at 1 µM: 10^-6 M; for inhibition at 0.1 µM: 10^-7 M, read-out: anti-AP-1 effect, inhibition; for anti-AP-1 effect (in words): TPA-activated MTLN cells. The essentials:
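MCF-7-derived MTLN cells stably carrying a p(TRE)3-tk-Luc reporter, activated with 10^-7 M TPA, run in duplicate. Luciferase inhibition by compounds given as percentage after subtracting basal cell activity, reported as a range from several experiments.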

In experiment [3] the test system is ERE-βGlob-Luc, MELN lineage (MCF-7). Nature of the experiment: Anti-oestrogenic effect, MELN lineage activated by estradiol. It counts as cell-based, human. Conditions: for inhibition / inhibition at 0.1 µM: Homo sapiens, MCF7, cells activated by 10^-9 M estradiol; for inhibition: 10^-6 M; for inhibition at 0.1 µM: 10^-7 M, read-out: anti-oestrogenic effect, inhibition; for anti-oestrogenic effect (in words): estradiol-activated MELN cells. The essentials: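 MCF-7-derived MELN cells stably carry luciferase driven by chicken vitellogenin A2 ERE and βGlobin promoter; stimulated with 10^-9 M estradiol, run in duplicate. Basal activity is set with 1 μM 4-OH-tamoxifen and subtracted. Effect expressed as percentage.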

For experiment [4], the system named is RAR-ERcassettes (RARα, RARβ, RARγ). Nature of the experiment: Chimerical receptors RAR-ERcassettes, overall profile. The format is cell-based. An outline of the steps:
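Read-out: ERE-driven luciferase in HeLa cells, normalised to a co-transfected CMV-β-galactosidase control. Receptor is RAR with its C domain swapped for the oestrogen receptor DNA-binding domain, keeping AF-1/AF-2 cooperation. Effector exposure 16 h, beginning 24 h post-transfection.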

[5] abbreviates: Homo sapiens, T47D, 504 h, 21 days, control = 100%, read-out: mean number of cellular colonies in relation to control.

`CC1(C)CCC(C)(C)c2cc(/C=C(\c3ccc(C(=O)O)cc3)C(F)(F)F)ccc21` [CB36493, (E) 4-[1-trifluoromethyl-2-(5,6,7,8-tetrahydro-5,5,8,8-tetramethyl-2-naphthalenyl)-1-ethenyl]benzoic acid]: in experiment [1] (setting [5]), the activity at 0.01 µM worked out at 17.4 ± 2%, the activity at 0.001 µM was 24.8 ± 0.5% and the activity at 0.0001 µM amounted to 35.8 ± 3.2%. In addition, the “effect on growth of cellular colonies (in words)” value (from here on “effect on growth”) in experiment [1] was “as active as the reference products CB13407 (9-cis RA) and LGD1069”. Moreover, in the experiment with Gal4-RARγ, the “GAL4-RAR RARγ transactivation” value came out at 50%. Besides, in experiment [2], the inhibition at 1 µM fell in the range of 38 to 46%, the inhibition at 0.1 µM was found to be 26% and the “anti-AP-1 effect (in words)” value was “exert an inhibitor effect comparable to that of the effect of CB28628”. In addition, in experiment [3], the inhibition was in the range of 17 to 32%, the inhibition at 0.1 µM was 0% and the “anti-oestrogenic effect (in words)” value was “permit a transrepression of a controlled gene by an ERE”. Also, the “RAR-ERcassette profile (in words)” value in experiment [4] is recorded as “induce a transactivation mediated by the three receptors”.

Take `C/C(=C/c1ccc2c(c1)C(C)(C)CCC2(C)C)c1ccc(C(=O)O)cn1` [CB38416, (Z) 2-[1-(5,6,7,8-tetrahydro-5,5,8,8-tetramethyl-2-naphthalenyl)-2-propenyl]pyridinyl-5-carboxylic acid]: in experiment [1] (Homo sapiens, T47D, 504 h, 10^-7 M, 21 days, control = 100%, read-out: mean number of cellular colonies in relation to control), the activity at 0.1 µM amounted to 11.6 ± 1.9%. In experiment [1] (setting [5]), the activity at 0.01 µM came to 15.3 ± 1.7% and the activity at 0.001 µM is 20 ± 0.2%. For the same molecule, the “effect on growth” value in experiment [1] is “as active as the reference products CB13407 (9-cis RA) and LGD1069”. Also, the “GAL4-RAR RARγ transactivation” value with Gal4-RARγ stood at 99%. Also, in experiment [2], the inhibition at 1 µM is 21 to 25% and the inhibition at 0.1 µM is 7 to 14%. Besides, in experiment [3], the inhibition is 19%, the inhibition at 0.1 µM was determined as 0% and the “anti-oestrogenic effect (in words)” value is reported as “permit a transrepression of a controlled gene by an ERE”. Also, the “RAR-ERcassette profile (in words)” value in experiment [4] is “induce a transactivation mediated by the three receptors”.

As for `C/C(=C/c1ccc2c(c1)C(C)(C)CCC2(C)C)c1ccc(-c2nnn[nH]2)cc1` [CB92834], in experiment [1] (setting [5]), the activity at 0.01 µM is 38 ± 2%, the activity at 0.001 µM amounted to 58.9 ± 3.7% and the activity at 0.0001 µM was determined as 82.5 ± 12%. Besides, the “effect on growth” value in experiment [1] is “global inhibiting and dose dependent activity as great as that obtained with the best products in the trans series (E)”. The “GAL4-RAR RARγ transactivation” value in the experiment with Gal4-RARγ was found to be 2%. In experiment [2], the inhibition at 1 µM was 20 to 23%, the inhibition at 0.1 µM lay in the range of 4 to 9% and the “anti-AP-1 effect (in words)” value is on record as “anti-AP-1 molecules through RXR”. In experiment [3], the inhibition is 0% and the “anti-oestrogenic effect (in words)” value is “inactive”. In experiment [4], the “RAR-ERcassette profile (in words)” value was “do not permit transactivation mediated by RARα-ERcassette and RARγ-cassette. However, a partial transactivation of RARβ-ERcassette is observed; also recorded: with a specific RAR agonist permits an over-activation of the effect of the RAR molecule alone for the three RAR-ERcassette receptors”.
